Test results published in PubChem BioAssay (NCI).
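1) Cells in 96-well plates. 2) Compound, 48 h, 5 concentrations. 3) Linear interpolation between surrounding doses. 4) Unreached endpoint = highest concentration. Here, GI50 denotes the concentration required for 50% inhibition of growth. TGI: total growth inhibition.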

What was measured:
Test in all cases: NCI anticancer screen, dose series, 48 h
[1] = system: EKVX NSCLC
[2] = system: HCC-2998 colon
[3] = system: HOP-92 NSCLC
[4] = system: KM12 colon
[5] = system: MALME-3M melanoma
[6] = system: OVCAR-4 ovarian
[7] = system: SK-MEL-2 melanoma
[8] = system: SK-OV-3 ovarian
[9] = system: T-47D breast
[10] = system: 786-0 renal
[11] = system: UACC-62 melanoma

`CN(C)CCCNC(=O)c1cc2[nH]c3c(cnc4ccc([N+](=O)[O-])cc43)c(=O)c2n1C` was tested, and the GI50 [1] was 23.5 µM, the TGI [1] was 52.3 µM and the GI50 [2] was 15.6 µM. The TGI [2] was 29 µM, the GI50 [3] was 13.5 µM and the TGI [3] was 32.1 µM. It also gave a GI50 [4] of 12 µM, a TGI [4] of 25.2 µM and a GI50 [5] of 21.3 µM. The TGI [5] was 40.4 µM, the GI50 [6] was 14 µM and the TGI [6] was 31.6 µM. For the same compound, the GI50 [7] was > 100 µM, the TGI [7] was > 100 µM and the GI50 [8] was 17.3 µM. For the same compound, the TGI [8] was 37.9 µM, the GI50 [9] was 19.3 µM and the TGI [9] was 39.2 µM.
`CCOC(=O)C1=C(C)N(Cc2ccc(Cl)cc2Cl)C2(O)C=CC(=O)C3C(=O)N(c4ccccc4)C(=O)C132` (centres undefined) was tested, and the TGI [10] was > 100 µM, the TGI [1] was 4.35 µM and the TGI [2] was 3.54 µM. It also gave a TGI [3] of 4.09 µM, a TGI [4] of 3.65 µM and a TGI [5] of 8.67 µM. The TGI [6] was 4.2 µM, the TGI [7] was 4.27 µM and the TGI [9] was 3.12 µM. For the same compound, the TGI [11] was 3.74 µM.
For `COC(=O)c1ccc(C(=O)NC(Cc2ccc(Oc3cc(CC(NC(=O)c4ccccc4C(=O)OC)C(=O)OC)ccc3OC)cc2)C(=O)OC)cc1` (centres undefined), the TGI [10] was > 100 µM, the TGI [1] was > 100 µM and the TGI [2] was > 100 µM. For the same compound, the TGI [3] was > 100 µM, the TGI [4] was > 100 µM and the TGI [5] was > 100 µM. The TGI [6] was > 100 µM, the TGI [7] was > 100 µM and the TGI [8] was > 100 µM. For the same compound, the TGI [9] was > 100 µM.
With `COc1cc(C(=O)n2c3ccc(Br)cc3c3nc4ccccc4nc32)cc(OC)c1OC` the TGI [10] was > 100 µM, the TGI [1] was > 100 µM and the TGI [2] was > 100 µM. The TGI [3] was > 100 µM, the TGI [4] was > 100 µM and the TGI [5] was > 100 µM. For the same compound, the TGI [6] was > 100 µM, the TGI [7] was > 100 µM and the TGI [9] was > 100 µM. For the same compound, the TGI [11] was > 100 µM.
`COC(=O)CC(C#N)(OP1(=O)OC(c2ccccc2)C(C)N1C)c1ccccc1` (centres undefined) gave a TGI [10] of 83 µM, a TGI [1] of 60.3 µM and a TGI [2] of 31.6 µM. The TGI [3] was 85.8 µM, the TGI [4] was 48.8 µM and the TGI [5] was > 100 µM. For the same compound, the TGI [7] was 95 µM, the TGI [8] was > 100 µM and the TGI [9] was 96.7 µM. It also gave a TGI [11] of 56.9 µM.
In the case of `Oc1c(C2=NNC(c3ccc(Cl)cc3Cl)C2)ccc2ccccc12` (centres undefined), the TGI [10] is reported as > 100 µM, the TGI [2] is reported as > 100 µM and the TGI [3] is reported as > 100 µM. For the same compound, the TGI [4] was > 100 µM, the TGI [5] was > 100 µM and the TGI [6] was > 100 µM. For the same compound, the TGI [7] was > 100 µM, the TGI [8] was > 100 µM and the TGI [9] was > 100 µM. The TGI [11] was > 100 µM.
With `O=c1cnn(C/C=C/CBr)c(=O)[nH]1` the TGI [1] was 39.2 µM, the TGI [2] was 34.7 µM and the TGI [3] was 28.7 µM. The TGI [4] was 32.7 µM, the TGI [5] was 32 µM and the TGI [6] was 48 µM. It also gave a TGI [7] of 42.2 µM and a TGI [9] of 57 µM.
`CC(C)(Br)C(Br)CCC1(C2CO2)CO1` (centres undefined) was tested, and the TGI [10] was > 5 µM, the TGI [1] was > 5 µM and the TGI [2] was > 5 µM. The TGI [3] was > 5 µM, the TGI [5] was > 5 µM and the TGI [6] was > 5 µM. For the same compound, the TGI [8] was > 5 µM and the TGI [9] was > 5 µM.
In the case of `CC(=O)Nc1ccc(C(=O)NN2C(=O)CSC2c2ccc([N+](=O)[O-])cc2)cc1` (centres undefined), the TGI [10] is reported as > 100 µM, the TGI [1] is reported as > 100 µM and the TGI [2] is reported as > 100 µM. The TGI [3] was > 100 µM, the TGI [4] was > 100 µM and the TGI [6] was > 100 µM. The TGI [7] was > 100 µM, the TGI [8] was > 100 µM and the TGI [9] was > 100 µM. The TGI [11] was > 100 µM.
For `OCC1OC(c2cccc3cc(O)c(O)cc23)CC1O` (centres undefined), the TGI [10] was > 100 µM, the TGI [1] was > 100 µM and the TGI [2] was > 100 µM. The TGI [3] was > 100 µM, the TGI [4] was > 100 µM and the TGI [6] was > 100 µM. For the same compound, the TGI [7] was > 100 µM, the TGI [8] was > 100 µM and the TGI [9] was > 100 µM. The TGI [11] was > 100 µM.
